Measured values published in patent EP0559845B1, “Use of compounds in preventing endotoxin shock” (priority 1991, dated 1992).
“Also recorded” adds a separate entry of the source.

Experiments:
[1] = system: FCS-enhanced GTPase activity; experiment: Inhibition of FCS-enhanced (non-LPS-stimulated) GTPase activity in macrophage membranes; format: biochemical; settings: 3 mg/ml lipid X; 10% FCS
Experimental: With respect to non-LPS-stimulated GTPase activity in this macrophage system, we observed that 10% FCS (<0.1 ng endotoxin/ml serum by the Limulus amebocyte lysate method) induced a large degree of GTPase activation, whereas 3 mg/ml lipid X inhibited the FCS-enhanced GTPase activity by ∼ 50%.

sheep [2] = experiment: Protection of sheep against the lethal effects of intravenous lipopolysaccharide; format: in vivo
Experimental: Mixed breed sheep weighing 30-70 kg were obtained from the University of Wisconsin Experimental Farms. Sheep were prepared as follows: at least 24 hours before each experiment, catheters were percutaneously placed in the pulmonary artery. Any other catheterizations that were required for infusion were done at this time. All studies were performed on awake, unrestrained sheep placed in portable stanchions with food and water ad libitum. Electronically calculated pulmonary artery pressures as well as heart rates were recorded at various intervals on a polygraph. To ensure a stable baseline prior to the injection of test compounds, approximately 1 hour of baseline measurements were recorded.
In view of the partial protection afforded by lipid X against LPS-induced lethality in mice, the possibility of such protection was also examined in sheep. The sheep system has the important advantage of permitting the administration of much larger doses of lipid X relative to LPS. It is the ratio of lipid X to endotoxin that is critical for survival. […] It is evident that a 5-10 fold excess of lipid X (on a weight basis) over LPS is required to ensure survival. (Because of the inherent LPS resistance of mice, their small body volume, and the limited solubility of lipid X in water, it is impossible to achieve 5-10 fold excess of lipid X relative to LPS in the mouse system.)

sheep [3] = settings: 40-1000 µg/kg; reported in the literature; cited from earlier work
[4] = system: GTPase activity in membranes isolated from a macrophage (RAW 264.7) cell line; experiment: GTPase assay, basal activity and single agonists; format: biochemical
Source text: (§1) We sought to directly evaluate the influence of LPS on possible G-protein function by examining agonist-enhanced GTPase activity, which is a hallmark of G-protein action. Moreover, because macrophages are one of the key cell types in the release of toxic mediators following an LPS challenge, we first assessed the capacity of LPS to influence GTPase activity in membranes isolated from RAW 264.7 cells, which is a highly LPS-responsive macrophage cell line. In these studies, GTPase activity was measured using a standard assay. The activity was determined using 2 µM γ-^32P-GTP in the presence of 0.1 mM ATP and 0.2 mM of the non-hydrolyzable ATP analog, AMPPNP, in order to minimize nonspecific nucleotidase activity in the membrane preparations. In the preferred practice of the present invention, the ability of a candidate compound to inhibit LPS-induced GTPase is assessed by measuring the release of ^32Pi from γ-^32P-GTP.
We first determined the optimal LPS concentration for GTPase stimulation. In all experiments, the LPS dose response curve was quite steep, and with the highest activity occurring around 200-300 µg LPS/ml.
Under these conditions, GTPase activation was evident at 100 µg LPS/ml (roughly 6 µM assuming an average MW ∼ 17,000 kDa), and the maximal effect was seen by 300 µg/ml LPS. (2) To show adenosine mucleotide synergism with LPS-stimulated GTPase activity, either 10µM ATP or 30µM ADP replace the 0.1 mM ATP and 0.2 mM AMPPNP of the standard assay described by Cassel et al. and Neer et al.
Because the above inhibitor studies indicated a maximum LPS-stimulated GTPase activity in the presence of ATP and ATP analogs, we investigated this interaction by measuring the ATP-dependence of the GTPase activity in macrophage membranes in the presence and absence of an optimal dose of LPS. […] This stimulation by ATP may be due to the action of purinergic receptors, i.e., the adenosine and ATP receptors which are well-characterized to be coupled to various G-proteins.
To assess whether the LPS/ATP-enhanced GTPase is a "low Km" form, which would be expected for a variety of large and small MW G-proteins, as well as for various GAP and ARF-like proteins, as opposed to a "high Km" form, such as a phosphatase, we assayed the GTPase activity using 0.2 and 50 µM GTP essentially as described previously. […] The LPS and ATP stimulated a low Km GTPase activity by ∼30% and 70%, respectively, when added individually. This stimulation of low Km activity was slightly greater than that estimated using the standard assay conditions. […] The LPS stimulation of GTPase activity is enhanced by adenine nucleotides.

[5] = system: LPS-induced GTPase activity in membranes isolated from RAW 264.7 cells; experiment: GTPase assay: effect of compounds on LPS-stimulated GTPase activity in macrophage membranes (release of 32Pi from γ-32P-GTP); format: biochemical
Source text: as §1, with “preparations.” for “preparations. In the preferred practice of the present invention, the ability of a candidate compound to inhibit LPS-induced GTPase is assessed by measuring the release of ^32Pi from γ-^32P-GTP.”
The reaction is initiated by the addition of the γ-^32P-GTP and the mixture incubated at 30-37°C for 15 to 30 minutes. The reaction is terminated by the addition of 500µl of 5% trichloroacetic acid and 500µl of 0.1gm/ml acid-activated charcoal in 5% trichloroacetic acid. The samples are centrifuged at 14,000xg for 10 minutes, and a 550µl aliquot of the supernatant is removed for scintillation counting. The supernatant will contain the released ^32Pi. The extent of GTPase inhibition is measured by the decrease in the amount of ^32Pi released from γ-^32P-GTP. Appropriate controls include mixtures with one of the following omitted: (i) test compound, (ii) endotoxin, and (iii) ATP, ADP or AMPPNP.
The membranes are resuspended in 20 mM HEPES (pH 7.4), 1 mM dithiothreitol, 1 mM EDTA and 10 µg leupeptin/ml. Aliquots are stored at -70°C until assayed.

SMILES: CCCCCCCCCCC[C@@H](O)CC(=O)N[C@H]1[C@@H](OP(=O)(O)O)O[C@H](CO)[C@@H](O)[C@@H]1OC(=O)C[C@H](O)CCCCCCCCCCC [lipid X]
- inhibition of FCS-enhanced GTPase activity [1]: ~50%
- survival of subsequent LPS challenge (sheep [2]; 100-200 µg/kg of lipid X during the pretreatment period): survived
- Survivors (sheep [2]; Lipid X 50 µg/kg 1 hour prior to endotoxin, Lipopolysaccharide 20 µg/kg): 1/2
- Survivors (sheep [2]; Lipid X 100 µg/kg 15 min. prior to endotoxin, Lipopolysaccharide 10 µg/kg): 3/3
- Survivors (sheep [2]; Lipid X 100 µg/kg 1 hour prior to endotoxin, Lipopolysaccharide 20 µg/kg): 4/4
- Survivors (sheep [2]; Lipid X 200 µg/kg 1 hour prior to endotoxin, Lipopolysaccharide 20 µg/kg): 3/3
- excess of lipid X over LPS required to ensure survival (sheep [2]; in vivo): 5-10 fold excess (on a weight basis
- effect on pulmonary hypertension or fever induced by LPS (sheep [2]; pretreatment with lipid X): does not completely prevent
- effect on serious clinical symptoms (shortness of breath, weakness, diarrhea) (sheep [2]; pretreatment with lipid X): alleviates some of the serious clinical symptoms
- illness after lipid X by itself (sheep [3]): does not create marked illness or fever
- effect on basal GTPase activity [4]: slightly reducing
- inhibition of LPS-stimulated GTPase activity [5]: dose-dependent inhibition; also recorded: dose-dependently inhibiting
- half-maximal inhibition of LPS-enhanced GTPase activity ([5]; LPS 300 µg/ml or 1 mg/ml): 23 to 1 molar ratio of lipid X to LPS
